In the CheMixHub ionic liquid set:
± gives the uncertainty stated by the source.

Assay: xn = mol fraction of the nth substance listed
Conditions: 100 kPa

CC[n+]1ccccc1.N#C[N-]C#N + CCO
Conditions	viscosity [mPa·s]
288.15 K, x2 = 0	25.9 ± 2.6
288.15 K, x2 = 0.1008	21.3 ± 2.2
293.15 K, x2 = 0.1008	17.9 ± 1.8
298.15 K, x2 = 0	18.9 ± 1.9
298.15 K, x2 = 0.1974	12.4 ± 1.3
298.15 K, x2 = 0.3008	10.3 ± 1
298.15 K, x2 = 0.7999	2.54 ± 0.26
303.15 K, x2 = 0.9011	1.69 ± 0.17
308.15 K, x2 = 0.5058	5.17 ± 0.52
313.15 K, x2 = 0.3994	5.99 ± 0.6
313.15 K, x2 = 0.5058	4.69 ± 0.47
313.15 K, x2 = 0.5994	3.74 ± 0.38
313.15 K, x2 = 0.6996	2.92 ± 0.29
318.15 K, x2 = 0.1008	8.97 ± 0.9
318.15 K, x2 = 0.3994	5.44 ± 0.55

CC[n+]1ccn(C)c1.O=S(=O)([O-])C(F)(F)C(F)F + CCCC[n+]1ccc(C)cc1.O=S(=O)([N-]S(=O)(=O)C(F)(F)F)C(F)(F)F
Conditions	viscosity [mPa·s]
293.15 K, x2 = 0.2211	111.1 ± 3.9
293.15 K, x2 = 0.3324	106.5 ± 3.6
293.15 K, x2 = 0.4432	101 ± 3.3
293.15 K, x2 = 0.774	84.5 ± 2.5
303.15 K, x2 = 0.3324	66.1 ± 1.7
303.15 K, x2 = 0.9517	47.6 ± 1.2
313.15 K, x2 = 0.0504	47.7 ± 1.2
313.15 K, x2 = 0.112	47 ± 1.2
313.15 K, x2 = 0.4432	41.7 ± 1.1
313.15 K, x2 = 0.6631	37.5 ± 1
323.15 K, x2 = 0.4432	29.2 ± 0.7
333.15 K, x2 = 0.4432	21.5 ± 0.6
333.15 K, x2 = 0.5529	20.3 ± 0.5
333.15 K, x2 = 0.6631	19.5 ± 0.5
343.15 K, x2 = 0.0504	18.2 ± 0.5
353.15 K, x2 = 0.774	10.9 ± 0.3
353.15 K, x2 = 0.8828	10.3 ± 0.3

COCCOCCOC + CCCC[n+]1ccn(C)c1.F[P-](F)(F)(F)(F)F
Conditions	viscosity [mPa·s]
283.15 K, x2 = 0.2056	7.206 ± 0.087
283.15 K, x2 = 0.5857	63.81 ± 0.93
283.15 K, x2 = 0.8057	237.7 ± 7
283.15 K, x2 = 0.8992	407 ± 15
293.15 K, x2 = 0.1028	2.611 ± 0.031
293.15 K, x2 = 0.4923	23.24 ± 0.32
293.15 K, x2 = 0.5839	39.17 ± 0.58
293.15 K, x2 = 0.9523	295.7 ± 9.9
303.15 K, x2 = 0.0572	1.283 ± 0.015
303.15 K, x2 = 0.3956	8.98 ± 0.12
303.15 K, x2 = 0.7842	65.7 ± 1.1
313.15 K, x2 = 0.3979	4.083 ± 0.056
313.15 K, x2 = 0.5861	13.01 ± 0.19
